Data as given in patent US20150175603A1, “TRICYCLIC COMPOUNDS AS KAT II INHIBITORS” (PFIZER INC., priority 2012, published 2015).
Counter-ions that a name gives are not always drawn.

target: human KAT II (hKAT II) enzyme (Homo sapiens, UniProt Q8N5Z0); assay: KAT II Inhibition Spectra Assay; type: biochemical; conditions: single determination unless marked a (geometric mean of 2-4 determinations); decrease in OD370, L-kynurenine substrate, 37° C. for 15-20 h; read-out: KATII IC50
Protocol: KAT II Inhibition Spectra Assay
Formation of kynurenic acid (KYNA) is indirectly assessed by a decrease in light absorbance at 370 nm (OD370) as the L-kynurenine (KYN) substrate is converted by the human KAT II (hKAT II) enzyme into KYNA. An inhibitor would therefore inhibit the decrease in OD370.
The protocol was performed by placing the following reagents into a Costar 384 well black plate (30 μL total assay volume/well): • 10 μL of 3× concentrated compound; • 10 μL of 3× concentrated substrate mix (BGG (Sigma G-5009); 3 mM L-Kynurenine in 150 mM Tris Acetate (Sigma K3750); 3 mM α-ketoglutaric acid in 150 mM Tris Acetate (Sigma K2010); and 210 μM pyridoxal 5-phosphate (PLP) in 150 mM Tris Acetate (Sigma 9255)); and • 10 μL of 3× concentrated enzyme (15 nM enzyme in 150 mM Tris Acetate with 0.3% bovine serum).
Plates were sealed and incubated at 37° C. for 15-20 h before reading OD370 on a SpectraMax Plus plate reader. IC50s were generated by comparing the efficacy of compounds across a concentration range to inhibit a reduction in the OD370 value relative to assay wells with DMSO added in place of concentrated compound. Biological data for the Examples may be found in Table 2.

Chain of human KAT II (hKAT II) enzyme (Q8N5Z0 30-425): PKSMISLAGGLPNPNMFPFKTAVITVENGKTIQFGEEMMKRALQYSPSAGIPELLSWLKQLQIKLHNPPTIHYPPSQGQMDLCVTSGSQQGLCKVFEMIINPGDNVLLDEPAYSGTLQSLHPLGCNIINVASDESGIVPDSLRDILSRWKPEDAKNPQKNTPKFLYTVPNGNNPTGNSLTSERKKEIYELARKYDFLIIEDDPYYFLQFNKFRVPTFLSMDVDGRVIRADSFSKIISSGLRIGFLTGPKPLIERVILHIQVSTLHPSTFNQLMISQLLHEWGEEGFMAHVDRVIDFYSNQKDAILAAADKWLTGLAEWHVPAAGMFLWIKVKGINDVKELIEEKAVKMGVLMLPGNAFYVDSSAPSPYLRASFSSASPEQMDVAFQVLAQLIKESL

Structure (SMILES) | IC50 [nM]
NC1Cc2cc(-c3cc(C(F)(F)F)ccc3Cl)ccc2-n2c1n[nH]c2=O (stereo not drawn) [Example 21, 4—amino—7—[2—chloro—5—(trifluoromethyl)phenyl]—4,5—dihydro[1,2,4]triazolo[4,3—a]quinolin—1(2H)—one, trifluoroacetate salt] | 1250
NC1Cc2cc(-c3ccccc3OC(F)(F)F)ccc2-n2c1n[nH]c2=O (stereo not drawn) [Example 37, 4—amino—7—[2—(trifluoromethoxy)phenyl]—4,5—dihydro[1,2,4]triazolo[4,3—a]quinolin—1(2H)—one, trifluoroacetate salt] | 527
NC1Cc2cc(-c3ccc(Cl)cc3Cl)ccc2-n2c1n[nH]c2=O (stereo not drawn) [Example 35, 4—amino—7—(2,4—dichlorophenyl)—4,5—dihydro[1,2,4]triazolo[4,3—a]quinolin—1(2H)—one, trifluoroacetate salt] | 1380
NC1Cc2cc(-c3ccccc3)ccc2-n2c1n[nH]c2=O (stereo not drawn) [Example 45, 4—amino—7—phenyl—4,5-dihydro[1,2,4]triazolo[4,3—a]quinolin—1(2H)—one, hydrochloride salt] | 790
NC1Cc2cc(-c3cccnc3)ccc2-n2c1n[nH]c2=O (stereo not drawn) [Example 20, 4—amino—7—(pyridin—3—yl)—4,5—dihydro[1,2,4]triazolo[4,3—a]quinolin—1(2H)—one, trifluoroacetate salt] | 546
Cn1cc(-c2ccc3c(c2)CC(N)c2n[nH]c(=O)n2-3)cn1 (stereo not drawn) [Example 18, 4—amino—7—(1—methyl—1H—pyrazol—4—yl)—4,5—dihydro[1,2,4]triazolo[4,3—a]quinolin—1(2H)—one, trifluoroacetate salt] | 1360
CCOc1cc(-c2ccc3c(c2)CC(N)c2n[nH]c(=O)n2-3)ccn1 (stereo not drawn) [Example 17, 4—amino—7—(2—ethoxypyridin—4—yl)—4,5—dihydro[1,2,4]triazolo[4,3—a]quinolin—1(2H)—one, trifluoroacetate salt] | 1830
NC1Cc2cc(Oc3ccccc3)cnc2-n2cnnc21 (single isomer, unassigned) [Example 9, 3—phenoxy—5,6—dihydro[1,2,4]triazolo[4,3—a][1,8]naphthyridin—6—amine ENT—2] | 1310
CCOc1ccc(Cl)cc1-c1ccc2c(c1)CC(N)c1n[nH]c(=O)n1-2 (stereo not drawn) [Example 39, 4—amino—7—(5—chloro—2—ethoxyphenyl)—4,5—dihydro[1,2,4]triazolo[4,3—a]quinolin—1(2H)—one, trifluoroacetate salt] | 968
NC1Cc2cc(-c3cccc(OC(F)(F)F)c3)ccc2-n2c1n[nH]c2=O (stereo not drawn) [Example 23, 4—amino—7—[3—(trifluoromethoxy)pheny1]—4,5—dihydro[1,2,4]triazolo[4,3—a]quinolin—1(2H)—one, trifluoroacetate salt] | 684
COc1cc2c(cc1Cc1ccccc1)CC(N)c1n[nH]c(=O)n1-2 (stereo not drawn) [Example 47, 4—amino—7—benzyl—8—methoxy—4,5—dihydro[1,2,4]triazolo[4,3—a]quinolin—1(2H)—one, hydrochloride salt] | 637
COc1cccc(Oc2ccc3c(c2)CC(N)c2n[nH]c(=O)n2-3)c1 (single isomer, unassigned; ent-2) [Example C9, 4-amino-7-(3-methoxyphenoxy)-4,5-dihydro[1,2,4]triazolo[4,3-a]quinolin-1(2H)-one ENT-2, hydrochloride salt] | 3720
Cc1ccccc1-c1ccc2c(c1)CC(N)c1n[nH]c(=O)n1-2 (stereo not drawn) [Example 31, 4—amino—7—(2—methylphenyl)—4,5—dihydro[1,2,4]triazolo[4,3—a]quinolin—1(2H)—one, trifluoroacetate salt] | 660
CC(C)Oc1cccc(-c2ccc3c(c2)CC(N)c2n[nH]c(=O)n2-3)c1 (stereo not drawn) [Example 30, 4—amino—7—[3—(propan—2—yloxy)phenyl]—4,5—dihydro[1,2,4]triazolo[4,3—a]quinolin—1(2H)—one, trifluoroacetate salt] | 534

Stronger by IC50, values ahead:

IC50 [nM] | Structure (SMILES)
357 | COc1cccc(-c2ccc3c(c2)CC(N)c2n[nH]c(=O)n2-3)c1 (stereo not drawn) [Example 28, 4—amino—7—(3—methoxyphenyl)—4,5—dihydro[1,2,4]triazolo[4,3—a]quinolin—1(2H)—one, trifluoroacetate salt]
185 | NC1Cc2cc(Oc3cccc(C(F)(F)F)c3)ccc2-n2cnnc21 (stereo not drawn) [Example 10, 7—[3—(trifluoromethyl)phenoxy]—4,5—dihydro[1,2,4]triazolo[4,3—a]quinolin—4—amine, hydrochloride salt]
197 | COc1ncccc1-c1ccc2c(c1)CC(N)c1n[nH]c(=O)n1-2 (stereo not drawn) [Example 33, 4—amino—7—(2—methoxypyridin—3—yl)—4,5—dihydro[1,2,4]triazolo[4,3—a]quinolin—1(2H)—one, trifluoroacetate salt]
107 | COc1cccc(Oc2ccc3c(c2)CC(N)c2nncn2-3)c1 (single isomer, unassigned; ent-1) [Example 4, 7-(3-Methoxyphenoxy)-4,5-dihydro[1,2,4]triazolo[4,3-a]quinolin-4-amine, ENT-1]
426 | NC1Cc2cc(Cc3ccccc3)ccc2-n2c1n[nH]c2=O (stereo not drawn) [Example 44, 4—amino—7—benzyl—4,5—dihydro[1,2,4]triazolo[4,3—a]quinolin—1(2H)—one, hydrochloride salt]
302 | COc1ccc(F)cc1-c1ccc2c(c1)CC(N)c1n[nH]c(=O)n1-2 (stereo not drawn) [Example 32, 4—amino—7—(5—fluoro—2—methoxyphenyl)—4,5—dihydro[1,2,4]triazolo[4,3—a]quinolin—1(2H)—one, trifluoroacetate salt]
262 | Cn1ncc2c(-c3ccc4c(c3)CC(N)c3n[nH]c(=O)n3-4)cccc21 (stereo not drawn) [Example 15, 4—amino—7(1—methyl—1H—indazol—4—yl)—4,5—dihydro[1,2,4]triazolo[4,3—a]quinolin—1(2H)—one, trifluoroacetate salt]
83.7 | NC1Cc2cc(Oc3ccccc3)ccc2-n2c1n[nH]c2=O (stereo not drawn) [Example 48, 4—amino—7—phenoxy—4,5—dihydro[1,2,4]triazolo[4,3—a]quinolin—1(2H)—one, hydrochloride salt]
506 | NC1Cc2cc(-c3ccccc3Cl)ccc2-n2c1n[nH]c2=O (stereo not drawn) [Example 11, 4—amino—7—(2-chlorophenyl)—4,5—dihydro[1,2,4]triazolo[4,3—a]quinolin—1(2H)—one, trifluoroacetate salt]
364 | NC1Cc2cc(-c3cccc(F)c3F)ccc2-n2c1n[nH]c2=O (stereo not drawn) [Example 26, 4—amino—7—(2,3-difluorophenyl)—4,5—dihydro[1,2,4]triazolo[4,3—a]quinolin—1(2H)—one, trifluoroacetate salt]
91.9 | CC(=O)c1cccc(-c2ccc3c(c2)CC(N)c2n[nH]c(=O)n2-3)c1 (stereo not drawn) [Example 25, 7—(3—acetylphenyl)—4—amino—4,5—dihydro[1,2,4]triazolo[4,3—a]quinolin—1(2H)—one, trifluoroacetate salt]
334 | NC1Cc2cc(-c3cccc4cnccc34)ccc2-n2c1n[nH]c2=O (stereo not drawn) [Example 12, 4—amino—7—(isoquinolin—5—yl)—4,5—dihydro[1,2,4]triazolo[4,3—a]quinolin—1(2H)—one, trifluoroacetate salt]
390 | COc1cccc(Oc2ccc3c(c2)C[C@H](N)c2noc(=O)n2-3)c1 [Example 6, (4S)-4-Amino-7-(3-methoxyphenoxy)-4,5-dihydro[1,2,4]oxadiazolo[4,3-a]quinolin-1-one, hydrochloride salt]
